The supplement of paper PMC10307832

Assays:
Assay in all cases: relative viability (nuclei count vs DMSO), 5 days (fraction); higher = more cells survive
[1] = compound: CC1=CC=C(C=C1)C(=O)CN2C3=C(CCCC3)SC2=N [Pifithrin_alpha] + CCNC(=O)c1noc(-c2cc(C(C)C)c(O)cc2O)c1-c1ccc(CN2CCOCC2)cc1 [Luminespib] (partner 0.01 µM)
Method in brief: (§1)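 Five library-drug doses in √10 steps were combined with a fixed anchor-drug dose, or a single drug was given alone, by pin tool to lung cancer cell lines in 1536-well plates the day after seeding. Nuclei were stained and counted after 5 days. Relative viability is the nuclei count in treated wells over that in vehicle wells, taken as the median of duplicate plates.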

Axitinib + Tozasertib = compound: CNC(=O)c1ccccc1Sc1ccc2c(/C=C/c3ccccn3)n[nH]c2c1 [Axitinib] + Cc1cc(Nc2cc(N3CCN(C)CC3)nc(Sc3ccc(NC(=O)C4CC4)cc3)n2)n[nH]1 [Tozasertib] (partner 0.1 µM)
Method in brief: as §1

Axitinib + Phenformin = compound: CNC(=O)c1ccccc1Sc1ccc2c(/C=C/c3ccccn3)n[nH]c2c1 [Axitinib] + N=C(N)NC(=N)NCCc1ccccc1 [Phenformin] (partner 250 µM)
Method in brief: as §1

Axitinib + AZD7762 = compound: CNC(=O)c1ccccc1Sc1ccc2c(/C=C/c3ccccn3)n[nH]c2c1 [Axitinib] + NC(=O)Nc1cc(-c2cccc(F)c2)sc1C(=O)N[C@H]1CCCNC1 [AZD7762] (partner 0.2 µM)
Method in brief: as §1

Cell Line | relative viability ([1]; first compound 1 µM) | relative viability ([1]; first compound 3.162 µM) | relative viability ([1]; first compound 10 µM) | relative viability ([1]; first compound 31.62 µM) | relative viability ([1]; first compound 100 µM) | relative viability (Axitinib + Tozasertib; first compound 0.005 µM) | relative viability (Axitinib + Tozasertib; first compound 0.01581 µM) | relative viability (Axitinib + Tozasertib; first compound 0.05 µM) | relative viability (Axitinib + Tozasertib; first compound 0.1581 µM) | relative viability (Axitinib + Tozasertib; first compound 0.5 µM) | relative viability (Axitinib + Phenformin; first compound 0.005 µM) | relative viability (Axitinib + Phenformin; first compound 0.01581 µM) | relative viability (Axitinib + Phenformin; first compound 0.05 µM) | relative viability (Axitinib + Phenformin; first compound 0.1581 µM) | relative viability (Axitinib + Phenformin; first compound 0.5 µM) | relative viability (Axitinib + AZD7762; first compound 0.005 µM) | relative viability (Axitinib + AZD7762; first compound 0.01581 µM) | relative viability (Axitinib + AZD7762; first compound 0.05 µM) | relative viability (Axitinib + AZD7762; first compound 0.1581 µM) | relative viability (Axitinib + AZD7762; first compound 0.5 µM)
LOU-NH91 | 0.322 | 0.261 | 0.308 | 0.315 | 0.296 | 0.682 | 0.54 | 0.746 | 0.694 | 0.827 | 0.763 | 0.523 | 0.875 | 0.684 | 0.695 | 0.806 | 0.723 | 0.814 | 0.761 | 0.78
LU99A | 0.304 | 0.302 | 0.244 | 0.206 | 0.281 | 0.27 | 0.266 | 0.264 | 0.369 | 0.419 | 0.784 | 0.823 | 0.981 | 0.88 | 0.91 | 0.433 | 0.451 | 0.397 | 0.39 | 0.415
LXF-289 | 0.676 | 0.589 | 0.789 | 0.469 | 0.697 | 0.253 | 0.175 | 0.219 | 0.253 | 0.317 | 0.534 | 0.518 | 0.526 | 0.508 | 0.516 | 1.16 | 1.06 | 1.11 | 1.06 | 1.18
NCI-H23 | 0.231 | 0.218 | 0.206 | 0.205 | 0.187 | 0.421 | 0.431 | 0.442 | 0.44 | 0.8 | 0.577 | 0.842 | 0.857 | 0.708 | 0.847 | 0.328 | 0.216 | 0.23 | 0.241 | 0.288
NCI-H322M | 0.865 | 0.868 | 0.841 | 0.647 | 0.766 | 0.453 | 0.435 | 0.432 | 0.437 | 0.527 | 0.886 | 0.754 | 0.812 | 0.712 | 0.989 | 0.564 | 0.525 | 0.579 | 0.548 | 0.612
NCI-H358 | 0.462 | 0.478 | 0.26 | 0.247 | 0.324 | 0.105 | 0.0955 | 0.105 | 0.101 | 0.108 | 0.344 | 0.32 | 0.332 | 0.309 | 0.388 | 0.529 | 0.509 | 0.626 | 0.512 | 0.635
NCI-H441 | 0.355 | 0.369 | 0.383 |  | 0.464 | 0.746 | 0.585 | 0.658 | 0.789 | 0.796 | 0.929 | 0.803 | 0.882 | 0.76 | 0.834 | 1.08 | 1.02 | 1.24 | 1.09 | 1.59
NCI-H460 | 0.0365 | 0.032 | 0.0293 | 0.0251 | 0.0317 | 0.394 | 0.515 | 0.525 | 0.413 | 0.624 | 0.553 | 0.515 | 0.583 | 0.518 | 0.678 | 0.693 | 0.576 | 0.757 | 0.636 | 1.02
NCI-H522 |  | 1.16 | 1.26 | 0.993 | 1.11 | 0.662 | 0.573 | 0.46 | 0.575 | 0.577 | 0.537 | 0.669 | 0.698 | 0.555 | 0.658 | 0.754 | 0.924 | 0.787 | 0.9 | 0.794
NCI-H596 | 0.991 | 1.1 | 1.02 | 0.507 | 0.566 | 1.05 | 0.938 | 0.877 | 0.893 | 0.935 | 0.735 | 0.784 | 0.841 | 0.746 | 0.638 | 1.14 | 0.978 | 1.12 | 1.12 | 0.943
NCI-H647 | 0.356 | 0.26 | 0.157 | 0.103 | 0.177 | 0.383 | 0.354 | 0.264 | 0.566 | 0.516 | 0.663 | 0.498 | 0.558 | 0.504 | 0.893 | 0.449 | 0.32 | 0.583 | 0.36 | 0.539
NCI-H727 | 0.44 | 0.238 | 0.491 |  | 0.263 | 0.543 | 0.628 | 0.625 | 0.674 | 0.746 | 0.7 | 0.519 | 0.589 | 0.536 | 0.728 | 0.488 | 0.554 | 0.629 | 0.738 | 0.584
NCI-H838 | 0.248 | 0.292 | 0.263 | 0.237 | 0.198 | 0.305 | 0.263 | 0.265 | 0.323 | 0.323 | 0.697 | 0.509 | 0.763 | 0.564 | 0.654 | 0.929 | 0.97 | 0.963 | 0.926 | 1.06
NCI-H1355 | 0.642 | 0.496 | 0.516 | 0.401 | 0.409 | 0.679 | 0.587 | 0.544 | 0.54 | 0.617 | 0.457 | 0.46 | 0.497 | 0.44 | 0.43 | 0.799 | 0.833 | 0.845 | 0.769 | 0.735
NCI-H1395 | 0.704 | 0.518 | 0.631 | 0.663 | 0.657 | 0.739 | 0.883 | 0.725 | 0.682 | 0.764 | 0.485 | 0.382 | 0.465 | 0.441 | 0.45 | 0.4 | 0.378 | 0.386 | 0.405 | 0.386
